Experimental data reported in patent US7776918B2, “Remedy for viral disease” (Chugai Seiyaku Kabushiki Kaisha, priority 2003, dated 2010).

tested on: Firefly luciferase HCV replicon cells (3-1); experiment: Cytotoxicity test (Cell Counting Kit-8); format: cell-based; conditions: Cell Counting Kit-8, absorbance 450 nm, after 3 days culture with compound
Procedure: (§1) Firefly luciferase HCV replicon cells (3-1) were suspended in Dulbecco's MEM (Gibco Cat. No. 10569-010) containing 5% fetal calf serum (Hyclone Cat. No. SH30071.03) and inoculated into a 96-well plate at 5000 cells/well followed by culturing overnight at 5% CO2 and 37° C. After about 20 hours, 10 μl of a diluted compound was added to each well followed by additional culturing for 3 days. Two series of the assay plates were prepared, and assay was conducted using white plates for one series while using clear plates for the other series. Following completion of culturing, the white plates were used with the Steady-Glo Luciferase Assay System (Promega Cat. No. E2520). More specifically, 100 μl of reagent was placed in each well and after mixing 3 to 4 times with a pipette and allowing to stand for 5 minutes, luminescence was measured with the 1450 MicroBeta TRILUX (WALLAC). The value in the absence of cell addition was used to indicate the background value, and that value was subtracted from all values to calculate the IC50 value (concentration resulting in 50% inhibition) of the drug based on 0% inhibition for the value obtained in the absence of drug addition.
(§2) The Cell Counting Kit-8 (Dojindo Cat. No. CK04) was used for measurement of cytotoxicity. More specifically, 10 μl of the Cell Counting Kit-8 was added to the clear plates followed by incubating at 37° C. for 30 to 60 minutes. Absorbance at a wavelength of 450 nm and control wavelength of 630 nm was measured with a 96-well plate reader. The value obtained in the absence of cell addition was used as a background value, and that value was subtracted from all values to calculate the CC50 value (concentration resulting in 50% cell inhibition) of the drug based on 0% inhibition for the value obtained in the absence of drug addition.

| SMILES | CC50 [nM] |
| --- | --- |
| CC#CCOc1ccc(C[C@H](NC(=O)[C@@H](/C=C/CCCCCCC(=O)CCCCCCC)[C@@](O)(CC(=O)O)C(=O)O)C(=O)O)cc1 [Compound 21] | > 5000 |
| CCCCCCCC(=O)CCCCCC/C=C/[C@H](C(=O)N[C@@H](Cc1ccc(OC)c(OC)c1)C(=O)O)[C@@](O)(CC(=O)O)C(=O)O [Compound 22] | > 1000 |

tested on: not listed separately; experiment: Cytotoxicity test (Cell Counting Kit-8); format: cell-based; conditions: human, Firefly luciferase HCV replicon cells (3-1); Cell Counting Kit-8, absorbance 450 nm, after 3 days culture with compound
Procedure: as §1, §2

| SMILES | CC50 at 3 days [nM] |
| --- | --- |
| CCCCCCCCCCCCCC/C=C/[C@H](C(=O)N[C@@H](Cc1ccc(OCC=C(C)C)cc1)C(=O)O)[C@@](O)(CC(=O)O)C(=O)O (mixture of isomers) [Compound 13] | > 50000 |
| CCCCCCCC(=O)CCCCCC/C=C/[C@H](C(=O)N[C@@H](Cc1ccc(OCC=C(C)C)cc1)C(=O)O)[C@@](O)(CC(=O)O)C(=O)O [Compound 1] | > 5000 |
| CCCCCCCC(=O)CCCCCC/C=C/[C@H](C(=O)N[C@@H](Cc1ccc(OCC=C(C)C)cc1)C(=O)O)[C@@](O)(CC(=O)OC)C(=O)O [Compound 2] | > 1000 |
| CCCCCCCC(=O)CCCCCC/C=C/[C@H](C(=O)N[C@@H](Cc1ccc(OCC=C(C)C)cc1)C(=O)OC)[C@@](O)(CC(=O)OC)C(=O)O [Compound 3] | > 1000 |
| CCCCCCC(O)C(=O)CCCCCC/C=C/[C@H](C(=O)N[C@@H](Cc1ccc(O)cc1)C(=O)O)[C@@](O)(CC(=O)O)C(=O)O (stereo partly shown) [Compound 4] | > 1000 |
| CCCCCCCC(=O)CCCCCC/C=C/[C@H](C(=O)N[C@@H](Cc1c[nH]c2ccccc12)C(=O)O)[C@@](O)(CC(=O)O)C(=O)O [Compound 5] | > 1000 |
| CCCCCCC(O)C(=O)CCCCCC/C=C/[C@H](C(=O)N[C@@H](Cc1ccc(OCC=C(C)C)cc1)C(=O)O)[C@@](O)(CC(=O)O)C(=O)O (stereo partly shown) [Compound 6] | > 1000 |
| CCCCCCCC(=O)CCCCCC/C=C/[C@H](C(=O)N[C@@H](Cc1ccc(OCCC(C)C)cc1)C(=O)O)[C@@](O)(CC(=O)O)C(=O)O [Compound 7] | > 5000 |
| CCCCCCCC(O)CCCCCC/C=C/[C@H](C(=O)N[C@@H](Cc1ccc(OCC=C(C)C)cc1)C(=O)O)[C@@](O)(CC(=O)O)C(=O)O (stereo partly shown) [Compound 8] | > 5000 |
| CCCCCCCC(=O)CCCCCC/C=C/[C@H](C(=O)N[C@@H](Cc1ccc(O)cc1)C(=O)O)[C@@](O)(CC(=O)O)C(=O)O [Compound 9] | > 5000 |
| CCCCCCCC(=O)CCCCCCCC[C@H](C(=O)N[C@@H](Cc1ccc(O)cc1)C(=O)O)[C@@](O)(CC(=O)O)C(=O)O [Compound 10] | > 50000 |
| CCCCCCCC(=O)CCCCCC/C=C/[C@H](C(=O)N[C@@H](Cc1ccc(OCC=C(C)C)cc1)C(N)=O)[C@@](O)(CC(N)=O)C(N)=O [Compound 11] | > 5000 |
| CCCCCCCC(=O)CCCCCCCC[C@H](C(=O)N[C@@H](Cc1ccc(OCCC(C)C)cc1)C(=O)O)[C@@](O)(CC(=O)O)C(=O)O [Compound 12] | > 5000 |
| CCCCCCC/C(CCCCCC/C=C/[C@H](C(=O)N[C@@H](Cc1ccc(OCC=C(C)C)cc1)C(=O)O)[C@@](O)(CC(=O)O)C(=O)O)=N/OCCN [Compound 14] | 22000 |
| CCCCCCCC(CCCCCC/C=C/[C@H](C(=O)N[C@@H](Cc1ccc(OCC=C(C)C)cc1)C(=O)O)[C@@](O)(CC(=O)O)C(=O)O)=NOC [Compound 15] | > 50000 |
| CCCCCCCC(=O)CCCCCC/C=C/[C@H](C(=O)N[C@@H](Cc1ccc(OCCCC)cc1)C(=O)O)[C@@](O)(CC(=O)O)C(=O)O [Compound 23] | > 1000 |
| CCCCCCCC(=O)CCCCCC/C=C/[C@H](C(=O)N[C@@H](Cc1ccc(OCCC)cc1)C(=O)O)[C@@](O)(CC(=O)O)C(=O)O [Compound 24] | > 1000 |
| C=CCOc1ccc(C[C@H](NC(=O)[C@@H](/C=C/CCCCCCC(=O)CCCCCCC)[C@@](O)(CC(=O)O)C(=O)O)C(=O)O)cc1 [Compound 25] | > 1000 |
| CCCCCCCC(=O)CCCCCC/C=C/[C@H](C(=O)N[C@@H](Cc1ccc(OC)cc1)C(=O)O)[C@@](O)(CC(=O)O)C(=O)O [Compound 26] | > 1000 |

tested on: Cryptococcus neoformans; experiment: not given; conditions: known from WO98/56755; cited from earlier work

| SMILES | antimicrobial activity against Cryptococcus neoformans |
| --- | --- |
| CCCCCCCC(=O)CCCCCC/C=C/[C@H](C(=O)N[C@@H](Cc1ccc(OCC=C(C)C)cc1)C(=O)O)[C@@](O)(CC(=O)O)C(=O)O [Compound 1] | antimicrobial activity |

tested on: immune reactions; experiment: not given; conditions: known from WO98/56755; cited from earlier work

| SMILES | effects that inhibit immune reactions |
| --- | --- |
| CCCCCCCC(=O)CCCCCC/C=C/[C@H](C(=O)N[C@@H](Cc1ccc(OCC=C(C)C)cc1)C(=O)O)[C@@](O)(CC(=O)O)C(=O)O [Compound 1] | inhibit immune reactions |

tested on: Firefly luciferase HCV replicon cells (3-1); experiment: Replicon assay (firefly luciferase HCV replicon); format: cell-based; conditions: Hepatitis C virus, 72 h; luciferase luminescence after 3 days culture with compound, Huh7-derived replicon cells
Procedure: A construct was prepared in which luciferase gene derived from firefly was inserted as a reporter gene in HCV-RNA to assay the number of copies of HCV-RNA. The luciferase gene was inserted in a form that fuses with the neomycin resistance gene directly below IRES (Internal Ribosome Entry Site) of HCV gene in accordance with the method of Krieger, et al. (J. Virol. 75: 4614). After synthesizing the RNA in vitro, it was introduced into Huh7 cells by electroporation followed by isolation as G418 resistant clone.
as §1

| SMILES | IC50 [nM] |
| --- | --- |
| CCCCCCCCCCCCCC/C=C/[C@H](C(=O)N[C@@H](Cc1ccc(OCC=C(C)C)cc1)C(=O)O)[C@@](O)(CC(=O)O)C(=O)O (mixture of isomers) [Compound 13] | 100 |
| CCCCCCCC(=O)CCCCCC/C=C/[C@H](C(=O)N[C@@H](Cc1ccc(OCC=C(C)C)cc1)C(=O)O)[C@@](O)(CC(=O)O)C(=O)O [Compound 1] | 2 |
| CCCCCCCC(=O)CCCCCC/C=C/[C@H](C(=O)N[C@@H](Cc1ccc(OCC=C(C)C)cc1)C(=O)O)[C@@](O)(CC(=O)OC)C(=O)O [Compound 2] | 128 |
| CCCCCCCC(=O)CCCCCC/C=C/[C@H](C(=O)N[C@@H](Cc1ccc(OCC=C(C)C)cc1)C(=O)OC)[C@@](O)(CC(=O)OC)C(=O)O [Compound 3] | 76 |
| CCCCCCC(O)C(=O)CCCCCC/C=C/[C@H](C(=O)N[C@@H](Cc1ccc(O)cc1)C(=O)O)[C@@](O)(CC(=O)O)C(=O)O (stereo partly shown) [Compound 4] | 103 |
| CCCCCCCC(=O)CCCCCC/C=C/[C@H](C(=O)N[C@@H](Cc1c[nH]c2ccccc12)C(=O)O)[C@@](O)(CC(=O)O)C(=O)O [Compound 5] | 82 |
| CCCCCCC(O)C(=O)CCCCCC/C=C/[C@H](C(=O)N[C@@H](Cc1ccc(OCC=C(C)C)cc1)C(=O)O)[C@@](O)(CC(=O)O)C(=O)O (stereo partly shown) [Compound 6] | 7 |
| CCCCCCCC(=O)CCCCCC/C=C/[C@H](C(=O)N[C@@H](Cc1ccc(OCCC(C)C)cc1)C(=O)O)[C@@](O)(CC(=O)O)C(=O)O [Compound 7] | 2 |
| CCCCCCCC(O)CCCCCC/C=C/[C@H](C(=O)N[C@@H](Cc1ccc(OCC=C(C)C)cc1)C(=O)O)[C@@](O)(CC(=O)O)C(=O)O (stereo partly shown) [Compound 8] | 5 |
| CCCCCCCC(=O)CCCCCC/C=C/[C@H](C(=O)N[C@@H](Cc1ccc(O)cc1)C(=O)O)[C@@](O)(CC(=O)O)C(=O)O [Compound 9] | 20 |
| CCCCCCCC(=O)CCCCCCCC[C@H](C(=O)N[C@@H](Cc1ccc(O)cc1)C(=O)O)[C@@](O)(CC(=O)O)C(=O)O [Compound 10] | 245 |
| CCCCCCCC(=O)CCCCCC/C=C/[C@H](C(=O)N[C@@H](Cc1ccc(OCC=C(C)C)cc1)C(N)=O)[C@@](O)(CC(N)=O)C(N)=O [Compound 11] | 262 |
| CCCCCCCC(=O)CCCCCCCC[C@H](C(=O)N[C@@H](Cc1ccc(OCCC(C)C)cc1)C(=O)O)[C@@](O)(CC(=O)O)C(=O)O [Compound 12] | 72 |
| CCCCCCC/C(CCCCCC/C=C/[C@H](C(=O)N[C@@H](Cc1ccc(OCC=C(C)C)cc1)C(=O)O)[C@@](O)(CC(=O)O)C(=O)O)=N/OCCN [Compound 14] | 20 |
| CCCCCCCC(CCCCCC/C=C/[C@H](C(=O)N[C@@H](Cc1ccc(OCC=C(C)C)cc1)C(=O)O)[C@@](O)(CC(=O)O)C(=O)O)=NOC [Compound 15] | 20 |
| CCCCCCCC(=O)CCCCCC/C=C/[C@H](C(=O)N[C@@H](Cc1ccc(OCCCC)cc1)C(=O)O)[C@@](O)(CC(=O)O)C(=O)O [Compound 23] | 1 |
| CCCCCCCC(=O)CCCCCC/C=C/[C@H](C(=O)N[C@@H](Cc1ccc(OCCC)cc1)C(=O)O)[C@@](O)(CC(=O)O)C(=O)O [Compound 24] | 2 |
| C=CCOc1ccc(C[C@H](NC(=O)[C@@H](/C=C/CCCCCCC(=O)CCCCCCC)[C@@](O)(CC(=O)O)C(=O)O)C(=O)O)cc1 [Compound 25] | 1 |
| CCCCCCCC(=O)CCCCCC/C=C/[C@H](C(=O)N[C@@H](Cc1ccc(OC)cc1)C(=O)O)[C@@](O)(CC(=O)O)C(=O)O [Compound 26] | 3 |

tested on: Candida albicans; experiment: not given; conditions: known from WO98/56755; cited from earlier work

| SMILES | antimicrobial activity against Candida albicans |
| --- | --- |
| CCCCCCCC(=O)CCCCCC/C=C/[C@H](C(=O)N[C@@H](Cc1ccc(OCC=C(C)C)cc1)C(=O)O)[C@@](O)(CC(=O)O)C(=O)O [Compound 1] | antimicrobial activity |
